# Measured values: paper PMC9813109, “Phase I dose-escalation study of milademetan in patients with relapsed or refractory acute myeloid leukemia” (International Journal of Hematology, 2022)
# “Also recorded” adds a separate entry of the source. Where two headings read alike, the source gives them in different places.
# Assays:
# [1] = Plasma pharmacokinetics (validated HPLC/MS, noncompartmental analysis); format: in vivo, human; conditions: for Cmax / AUC(0-t) / Tmax / half-life / AUC(0-inf): human, plasma, oral
# Protocol: Milademetan concentrations were determined using a validated HPLC/MS method. The lower limit of quantification was 0.500 ng/mL. Noncompartmental analysis was used to calculate the PK parameters from milademetan plasma concentrations. In addition, the Phoenix WinNonlin 8.1 software (Certara, Princeton, NJ, USA) was used for PK analysis. In addition to descriptive statistics, the geometric mean and geometric coefficient of variation were used to describe the PK parameters. All analyses were conducted using SAS® software (version 9.4; SAS Institute Inc., Cary, NC, USA). The time courses of mean plasma milademetan concentrations on days 1 and 14 of cycle 1 (linear scale) in the QD 14/28-day schedule were used for pharmacokinetic analysis. The best response was measured as CR, CRh, CRi, or PR. For efficacy analysis, a waterfall plot of the best percent change from baseline blast count in bone marrow aspirate on the QD 14/28-day schedule was drawn to assess the blast count reduction. In addition, line plots of individual serum MIC-1 levels were drawn in the QD 14/28-day schedule for the pharmacodynamics analysis set.
# [2] = tested on: macrophage inhibitory cytokine-1 (MIC-1) serum levels; test: Serum MIC-1 (GDF-15) ELISA, pharmacodynamic biomarker; format: in vivo, human
# Protocol: To investigate biomarkers that could be potentially linked to the milademetan mechanism of action, blood, bone marrow, and serum were collected. TP53 tumor genotyping was done using bone marrow and blood samples collected before milademetan administration and at the end of treatment. TP53 genomic status was determined using a targeted next-generation sequencing following the reference human genome sequence (hg19). QIAamp® DSP FFPE Kit (Qiagen, Hilden, Germany) was used to extract DNA. Quantified DNA samples were processed by polymerase chain reaction (PCR) amplification using custom primer sets of all 11 TP53 exons. Libraries were prepared from purified PCR pools using Illumina TruSeq kits™ (Illumina, San Diego, CA, USA) and analyzed using the MiSeq platform™ (Illumina). Raw reads were aligned against hg19, and data sets were analyzed using a program developed in-house for genomic aberrations (i.e., mutations, deletions, and insertions) detection. Quantikine® ELISA Human GDF-15 immunoassay (R&D Systems, Inc., Minneapolis, MN, USA), employing the quantitative sandwich enzyme immunoassay technique, was used to determine serum MIC-1, also known as growth and differentiation factor-15 (GDF-15). […] In addition to descriptive statistics, the geometric mean and geometric coefficient of variation were used to describe the PK parameters. All analyses were conducted using SAS® software (version 9.4; SAS Institute Inc., Cary, NC, USA). The time courses of mean plasma milademetan concentrations on days 1 and 14 of cycle 1 (linear scale) in the QD 14/28-day schedule were used for pharmacokinetic analysis. The best response was measured as CR, CRh, CRi, or PR. For efficacy analysis, a waterfall plot of the best percent change from baseline blast count in bone marrow aspirate on the QD 14/28-day schedule was drawn to assess the blast count reduction. In addition, line plots of individual serum MIC-1 levels were drawn in the QD 14/28-day schedule for the pharmacodynamics analysis set.
# [3] = tested on: tumor cells; design: method as in PMID 31310659, PMID 30724592; conditions: in vitro studies; cited from earlier work
# [4] = tested on: hematologic malignancies like R/R AML and high-risk myelodysplastic syndrome; conditions: QD 14/28-day schedule, USA phase I, ref NCT02319369, data not published; cited from earlier work
smiles,measurement,setting,value
CC1(C)CCC2(CC1)N[C@@H](C(=O)N[C@@H]1CC[C@@H](C(N)=O)OC1)[C@H](c1ccnc(Cl)c1F)[C@]21C(=O)Nc2cc(Cl)ccc21 [milademetan],AUCinf,"[1]; Day 1 of cycle 1, 90 mg/day, mean (SD), two patients excluded","13,700 (4,100) ng h/mL"
same,Mean accumulation ratios based on AUC24h,"[1]; Day 14, dose range tested (90-160 mg)",1.40–1.90
same,Ctrough,"[1]; Day 14 of cycle 1, 90 mg/day, mean (SD)",422 (147) ng/mL
same,Ctrough,"[1]; Day 14 of cycle 1, 120 mg/day, mean (SD)",635 (533) ng/mL
same,Ctrough,"[1]; Day 14 of cycle 1, 160 mg/day, mean (SD)",769 (221) ng/mL
same,Increase in Cmax and AUC with dose,"[1]; dose range tested, single and multiple dosing",increased linearly with milademetan dose; also recorded: linear and dose-proportional
same,Cmax,"[1]; 90 mg/day, Day 1 of cycle 1, 90 mg/day, mean (SD)",653 ng/mL
same,AUC(0-t),"[1]; 90 mg/day, Day 1 of cycle 1, 90 mg/day, mean (SD), two patients excluded, read-out: AUC24h",8640 ng·h/mL
same,AUC(0-t),"[1]; 90 mg/day, Day 1 of cycle 1, 90 mg/day, mean (SD), read-out: AUC8h",3170 ng·h/mL
same,AUC(0-t),"[1]; 90 mg/day, Day 1 of cycle 1, 90 mg/day, mean (SD), read-out: AUClast",8060 ng·h/mL
same,Tmax,"[1]; 90 mg/day, Day 1 of cycle 1, 90 mg/day, median (minimum, maximum), read-out: Tmax",4.45 h
same,Cmax,"[1]; 90 mg/day, Day 14 of cycle 1, 90 mg/day, mean (SD)",1090 ng/mL
same,AUC(0-t),"[1]; 90 mg/day, Day 14 of cycle 1, 90 mg/day, mean (SD), read-out: AUC8h",6220 ng·h/mL
same,Tmax,"[1]; 90 mg/day, Day 14 of cycle 1, 90 mg/day, median (minimum, maximum), read-out: Tmax",3.02 h
same,Cmax,"[1]; 120 mg/day, Day 1 of cycle 1, 120 mg/day, mean (SD)",1010 ng/mL
same,AUC(0-t),"[1]; 120 mg/day, Day 1 of cycle 1, 120 mg/day, mean (SD), one patient excluded, read-out: AUC24h",12100 ng·h/mL
same,AUC(0-t),"[1]; 120 mg/day, Day 1 of cycle 1, 120 mg/day, mean (SD), read-out: AUC8h",4940 ng·h/mL
same,AUC(0-t),"[1]; 120 mg/day, Day 1 of cycle 1, 120 mg/day, mean (SD), read-out: AUClast",11300 ng·h/mL
same,Tmax,"[1]; 120 mg/day, Day 1 of cycle 1, 120 mg/day, median (minimum, maximum), read-out: Tmax",3.13 h
same,Cmax,"[1]; 120 mg/day, Day 14 of cycle 1, 120 mg/day, mean (SD)",1680 ng/mL
same,AUC(0-t),"[1]; 120 mg/day, Day 14 of cycle 1, 120 mg/day, mean (SD), read-out: AUC8h",10000 ng·h/mL
same,Tmax,"[1]; 120 mg/day, Day 14 of cycle 1, 120 mg/day, median (minimum, maximum), read-out: Tmax",2.98 h
same,Cmax,"[1]; 160 mg/day, Day 1 of cycle 1, 160 mg/day, mean (SD)",1380 ng/mL
same,AUC(0-t),"[1]; 160 mg/day, Day 1 of cycle 1, 160 mg/day, mean (SD), two patients excluded, read-out: AUC24h",15000 ng·h/mL
same,AUC(0-t),"[1]; 160 mg/day, Day 1 of cycle 1, 160 mg/day, mean (SD), read-out: AUC8h",6560 ng·h/mL
same,AUC(0-t),"[1]; 160 mg/day, Day 1 of cycle 1, 160 mg/day, mean (SD), read-out: AUClast",14900 ng·h/mL
same,Tmax,"[1]; 160 mg/day, Day 1 of cycle 1, 160 mg/day, median (minimum, maximum), read-out: Tmax",2.54 h
same,Cmax,"[1]; 160 mg/day, Day 14 of cycle 1, 160 mg/day, mean (SD)",2710 ng/mL
same,AUC(0-t),"[1]; 160 mg/day, Day 14 of cycle 1, 160 mg/day, mean (SD), read-out: AUC8h",15300 ng·h/mL
same,Tmax,"[1]; 160 mg/day, Day 14 of cycle 1, 160 mg/day, median (minimum, maximum), read-out: Tmax",3.03 h
same,half-life,"[1]; Day 1 of cycle 1, 90 mg/day, mean (SD), two patients excluded, read-out: t1/2 (converted)",15.9 h
same,AUC(0-inf),"[1]; Day 1 of cycle 1, 120 mg/day, mean (SD), one patient excluded",18600 ng·h/mL
same,half-life,"[1]; Day 1 of cycle 1, 120 mg/day, mean (SD), one patient excluded, read-out: t1/2 (converted)",14.1 h
same,AUC(0-inf),"[1]; Day 1 of cycle 1, 160 mg/day, mean (SD), two patients excluded",22700 ng·h/mL
same,half-life,"[1]; Day 1 of cycle 1, 160 mg/day, mean (SD), two patients excluded, read-out: t1/2 (converted)",14.6 h
same,half-life,"[1]; across doses, read-out: Mean half-life (converted)",~15 h
same,Tmax,"[1]; across doses, read-out: Median Tmax",3 to 4 h
same,Mean serum MIC-1 levels vs baseline,"[2]; all cohorts, after administration",increased from baseline in all cohorts
same,"Peak MIC-1 levels, 120- and 160-mg cohorts vs 90-mg cohort",[2]; in vivo,tended to be higher
same,Time of peak serum MIC-1 level,[2]; most patients,day 8 or 14 of cycle 1
same,Antitumor effect in vitro,[3],p53 status-dependent antitumor effect
same,Maximum tolerated dose (MTD),[4],160 mg
